Several values for one entry are separate records, joined by “and”; a condition that tells them apart may be missing. Identical values can stand only once. Like-named read-outs stand apart in the source and are kept apart here.
Assays:
[1] = In vivo cytotoxic assessment: serum AST and ALT in VL BALB/c mice; details: compared with uninfected negative controls
Procedure: Serum was collected from infected, treated and non-treated mice 14 days post infection and 7 days from the start of treatment for the determination of alanine amino transferase (ALT) and aspartate amino transferase (AST) activities. Assays were done in 96 well microtiter plates and samples and standards were run in duplicates or triplicates. For ALT, 2 μl of serum from infected treated and untreated samples were incubated with 10 μl of ALT substrate solution (1.78 g DL-alanine and 30 mg α-keto glutarate in 20 ml of phosphate buffer containing 1.25 ml of 0.4 M NaOH. Volume made up to 100 ml with buffer, pH 7.4. 1 ml of chloroform as preservative. Stable for 2 months at 2-8° C.), mixed and incubated at 37° C. for 30 minutes. 10 μl of dinitrophenolhydrazine (2,4 DNPH) was added. Blanks (ddH2O) and negative (not infected) samples were then added. Samples were mixed and incubated at room temperature for 20 minutes. 100 μl of 0.4 M NaOH was added, mixed and incubated at room temperature for 5 min. Plates were read at 490 nm. For AST, 2 μl of test and positive (infected, treated and untreated) samples were incubated with 10 μl of AST substrate solution (2.66 g DL-aspartic acid and 30 mg α-keto glutarate in 20.5 ml of 1 M NaOH pH 7.4, volume made up to 100 ml with phosphate buffer. 1 ml of chloroform was added as preservative. This was stable for 2 months at 2-8° C.) and incubated at 37° C. for 1 hr. 10 μl of 2,4 DNPH added and mixed. 2 μl of negative controls (not infected) and blanks (ddH2O) added and mixed and then incubated at room temperature for 20 min. 100 μl of 0.4 M NaOH was added, mixed and incubated at room temperature for 5 min and read at 490 nm. The enzyme activity was determined from the standard curve drawn using sodium pyruvate as standard solution (2 mM/ml pyruvate). Enzyme activities were expressed as units/ml. Reference ranges by this method are: AST; 0.096-3.8 U/ml and ALT; 0.112-3.0 U/ml. (Mallick et al., 2003; Reitman and Frankel, 1957).
In order to assess in vivo cytotoxicity of four naphthoquinone compounds (IMDNQ4, IMD8, IMDNQ 10, and IMDNQ 15), serum aspartate aminotransferase (AST), and alanine aminotransferase (ALT) levels were analyzed and compared to those in untreated controls. The assay range for AST is 0.096-3.8 U/ml (mean assay range is 1.95 U/ml) and for ALT assay, 0.112-3.0 U/ml (mean assay range is 1.56 U/ml). The results are expressed as percent increase or decrease in AST or ALT levels.

[2] = test system: L. donovani promastigotes; experiment: Antileishmanial activity on L. donovani promastigotes (resazurin cell viability assay); type: cell-based, Leishmania donovani; details: for IC50: resazurin assay, 0.03 to 44 μM, means ± S.E. of three experiments; for SI Values Promastigotes: SI = IC50 (mouse fibroblast) ÷ IC50 (promastigotes)
Procedure: Approximately 5×10^5 promastigotes/ml of L. donovani Khartum strain were inoculated into Yeager's Liver infusion tryptose (YLIT) medium or Brain Heart Infusion (BHI) broth (Difco), supplemented with glucose (2.5 mg/ml), 50 U/ml Pen-Strep and 0.005 mM Hemin at 25-26° C. and subcultured bi-weekly, Mikus et al., Parasitol Int., 48(3):265-9 (2000) (Mikus and Steverding, 2000).
The Leishmanicidal properties of fifteen naphthoquinone compounds (FIG. 1) on L. donovani promastigotes proliferation were assessed by the resazurin cell viability assay. Promastigotes from axenic culture were harvested during the exponential phase of growth (at least 5-day old culture), incubated at a concentration of 2×10^5 cells/200 μl with and without dilutions of compounds in 96-well microtitre plates. Dilutions of compounds covering 0.03 μM to 44 μM were prepared. […] 20 μl Alamar Blue (12.5 mg resazurin dissolved in 100 ml distilled water (Sigma #R7017)) (Mikes and Steverding, 2000) were added to each well and plates were incubated for another 2 hrs. […] Decrease in fluorescence (inhibition), were expressed as percentage of the fluorescence of control cultures and were plotted against the concentrations of compounds. The IC50 values were calculated from the sigmoidal inhibition curves.

[3] = Leishmania donovani, read-out: IC50 (μM) Promastigotes, L. donovani promastigotes

Compound | Serum ALT Increase (%) ([1]; 20 mg/kg) | Serum AST Increase (%) ([1]; 20 mg/kg) | Serum ALT Increase (%) ([1]; 5 mg/kg) | Serum AST Increase (%) ([1]; 5 mg/kg) | Serum ALT Increase (%) ([1]; 50 mg/kg) | Serum AST Increase (%) ([1]; 50 mg/kg) | IC50 [2, 3] [µM] | SI Values Promastigotes [2] | IC50 ([2]; read-out: IC50 (μM) Promastigotes, L. donovani promastigotes) [µM] | melting point [°C]
C[C@@H]1[C@H](O)[C@@H](C)/C=C/C=C/C=C/C=C/C=C/C=C/C=C/[C@H](O[C@@H]2O[C@H](C)[C@@H](O)[C@H](N)[C@@H]2O)C[C@@H]2O[C@](O)(C[C@@H](O)C[C@@H](O)[C@H](O)CC[C@@H](O)C[C@@H](O)CC(=O)O[C@H]1C)C[C@H](O)[C@H]2C(=O)O [Am. B., Amphotericin B, reference compound] | 100 | 88.05% | – | – | – | – | – | – | – | –
NC1=C(Br)C(=O)c2ccccc2C1=O [IMD8, 2-Amino-3-bromo-1,4-naphthoquinone] | 100 | 87.48% and 85.17% | 100 | 82.69 | 100 | 85.65% and 82.69% | 4.3 | 3301.71±321.1 and 3301.71 | 4.4 ± 0.4 | –
O=C1C(Cl)=C(N(C(=O)c2cccc(Cl)c2)C(=O)c2cccc(Cl)c2)C(=O)c2ccccc21 [IMDNQ4, 3-Chloro-N-(3-chlorobenzoyl)-N-(3-chloro-1,4-dioxo-1,4-dihydronaphthalen-2-yl)-benzamide] | 100 | 87.48% | 100 | 87.40 | 100 | 85.65% | 6.81 | 24.65±12.51 and 24.65 | – | 258 to 260
CCCC(=O)N(C(=O)CCC)C1=C(Cl)C(=O)c2ccccc2C1=O [IMDNQ15] | 100 | 90.34% | 100 | 87.95 | 100 | 91.91% | – | 61250.00±438 and 61250.00 | – | –

Reference: patent US20140336187A1, “METHODS FOR TREATING LEISHMANIASIS” (HOWARD UNIVERSITY, priority 2011, published 2014)
